Assay results published in ChEMBL document CHEMBL4800732, “Data for DCP probe TP-040” (2021).

Key:
[1] = biological target: Sodium-dependent serotonin transporter (Homo sapiens) (UniProt P31645); settings: Compound concentration 10.0 uM
[2] = biological target: Sodium-dependent dopamine transporter (Homo sapiens, UniProt Q01959); settings: Compound concentration 10.0 uM
[3] = biological target: 5-hydroxytryptamine receptor 2A (Homo sapiens, UniProt P28223); settings: Compound concentration 10.0 uM
[4] = biological target: D(4) dopamine receptor (Homo sapiens) (UniProt P21917); settings: Compound concentration 10.0 uM
[5] = biological target: 5-hydroxytryptamine receptor 2C (Homo sapiens) (UniProt P28335); settings: Compound concentration 10.0 uM
[6] = biological target: Muscarinic acetylcholine receptor M2 (Homo sapiens) (UniProt P08172); settings: Compound concentration 10.0 uM
[7] = biological target: 5-hydroxytryptamine receptor 1A (Homo sapiens) (UniProt P08908); settings: Compound concentration 10.0 uM
[8] = biological target: Mu-type opioid receptor (Homo sapiens) (UniProt P35372); settings: Compound concentration 10.0 uM
[9] = biological target: D(3) dopamine receptor (Homo sapiens) (UniProt P35462); settings: Compound concentration 10.0 uM
[10] = biological target: 5-hydroxytryptamine receptor 2B (Homo sapiens, UniProt P41595); assay: GPCRScan assay: inhibition of 5-HT2B; parameters: radioligand conc. used [nm] 1.0 – 2.0, parental cells stable HEK
[11] = biological target: Delta-type opioid receptor (Homo sapiens) (UniProt P41143); settings: Compound concentration 10.0 uM
[12] = biological target: 5-hydroxytryptamine receptor 7 (Homo sapiens, UniProt P34969); settings: Compound concentration 10.0 uM
[13] = biological target: 5-hydroxytryptamine receptor 3A (Homo sapiens) (UniProt P46098); settings: Compound concentration 10.0 uM
[14] = biological target: Histamine H1 receptor (Homo sapiens) (UniProt P35367); settings: Compound concentration 10.0 uM
[15] = biological target: Muscarinic acetylcholine receptor M3 (Homo sapiens) (UniProt P20309); settings: Compound concentration 10.0 uM
[16] = biological target: Muscarinic acetylcholine receptor M1 (Homo sapiens) (UniProt P11229); settings: Compound concentration 10.0 uM
[17] = biological target: T1, 5-hydroxytryptamine receptor 1D (Homo sapiens, UniProt P28221); settings: Compound concentration 10.0 uM
[18] = biological target: Alpha-2B adrenergic receptor (Homo sapiens) (UniProt P18089); settings: Compound concentration 10.0 uM
[19] = biological target: Sigma non-opioid intracellular receptor 1 (Homo sapiens, UniProt Q99720); settings: Compound concentration 10.0 uM
[20] = biological target: Alpha-1A adrenergic receptor (Homo sapiens) (UniProt P35348); settings: Compound concentration 10.0 uM
[21] = biological target: T2, Alpha-2B adrenergic receptor (Homo sapiens, UniProt P18089); assay: GPCRScan assay: inhibition of Alpha2B; parameters: radioligand conc. used [nm] 1.5 – 2.0, parental cells HEKT
T2 sequence (P18089 whole entry): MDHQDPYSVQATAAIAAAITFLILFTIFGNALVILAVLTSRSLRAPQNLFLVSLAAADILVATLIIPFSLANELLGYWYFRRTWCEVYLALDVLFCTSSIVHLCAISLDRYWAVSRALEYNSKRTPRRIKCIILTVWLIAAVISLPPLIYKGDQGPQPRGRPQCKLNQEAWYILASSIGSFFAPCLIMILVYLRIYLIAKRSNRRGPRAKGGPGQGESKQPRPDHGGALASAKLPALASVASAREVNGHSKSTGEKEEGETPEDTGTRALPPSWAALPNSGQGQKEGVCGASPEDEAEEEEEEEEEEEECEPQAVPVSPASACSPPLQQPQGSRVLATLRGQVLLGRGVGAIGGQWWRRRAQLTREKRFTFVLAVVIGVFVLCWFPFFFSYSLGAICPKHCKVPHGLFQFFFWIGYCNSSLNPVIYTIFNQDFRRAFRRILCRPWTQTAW

[22] = biological target: Alpha-2C adrenergic receptor (Homo sapiens) (UniProt P18825); settings: Compound concentration 10.0 uM
[23] = biological target: Alpha-1D adrenergic receptor (Homo sapiens) (UniProt P25100); settings: Compound concentration 10.0 uM
[24] = biological target: Beta-1 adrenergic receptor (Homo sapiens) (UniProt P08588); settings: Compound concentration 10.0 uM
[25] = biological target: Histamine H3 receptor (Homo sapiens, UniProt Q9Y5N1); settings: Compound concentration 10.0 uM
[26] = species on record: Rattus norvegicus; settings: Compound concentration 10.0 uM
[27] = biological target: 5-hydroxytryptamine receptor 6 (Homo sapiens, UniProt P50406); settings: Compound concentration 10.0 uM
[28] = biological target: Histamine H2 receptor (Homo sapiens, UniProt P25021); settings: Compound concentration 10.0 uM
[29] = biological target: T3, 5-hydroxytryptamine receptor 2C (Homo sapiens, UniProt P28335); assay: GPCRScan assay: inhibition of 5-HT2C; parameters: radioligand conc. used [nm] 1.0 – 2.5, parental cells HEK T
T3 sequence (P28335 whole entry): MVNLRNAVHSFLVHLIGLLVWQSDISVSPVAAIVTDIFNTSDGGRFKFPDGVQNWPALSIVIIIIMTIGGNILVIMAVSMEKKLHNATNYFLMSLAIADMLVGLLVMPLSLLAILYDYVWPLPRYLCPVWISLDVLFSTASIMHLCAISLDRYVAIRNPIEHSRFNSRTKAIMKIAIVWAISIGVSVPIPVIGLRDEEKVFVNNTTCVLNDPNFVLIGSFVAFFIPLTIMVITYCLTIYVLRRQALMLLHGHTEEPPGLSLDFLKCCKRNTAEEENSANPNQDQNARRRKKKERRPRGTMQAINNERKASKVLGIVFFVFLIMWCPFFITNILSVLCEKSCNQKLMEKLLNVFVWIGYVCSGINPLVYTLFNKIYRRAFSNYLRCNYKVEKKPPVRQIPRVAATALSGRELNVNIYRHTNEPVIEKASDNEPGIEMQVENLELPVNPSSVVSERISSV

[30] = biological target: Muscarinic acetylcholine receptor M4 (Homo sapiens) (UniProt P08173); settings: Compound concentration 10.0 uM
[31] = biological target: T1, 5-hydroxytryptamine receptor 1D; assay: GPCRScan assay: inhibition of 5-HT1D; parameters: radioligand conc. used [nm] 1.0 – 2.0, parental cells HEKT
[32] = biological target: 5-hydroxytryptamine receptor 1E (Homo sapiens) (UniProt P28566); settings: Compound concentration 10.0 uM
[33] = biological target: GABA-A receptor; anion channel (Rattus norvegicus) (UniProt O09028+P15431+P18506+P18508+P19969+P20236+P23574+P23576+P28471+P28473+P30191+P62813+P63079+P63138+Q91ZM7+Q9ES14); settings: Compound concentration 10.0 uM

T1 sequence (P28221 whole entry): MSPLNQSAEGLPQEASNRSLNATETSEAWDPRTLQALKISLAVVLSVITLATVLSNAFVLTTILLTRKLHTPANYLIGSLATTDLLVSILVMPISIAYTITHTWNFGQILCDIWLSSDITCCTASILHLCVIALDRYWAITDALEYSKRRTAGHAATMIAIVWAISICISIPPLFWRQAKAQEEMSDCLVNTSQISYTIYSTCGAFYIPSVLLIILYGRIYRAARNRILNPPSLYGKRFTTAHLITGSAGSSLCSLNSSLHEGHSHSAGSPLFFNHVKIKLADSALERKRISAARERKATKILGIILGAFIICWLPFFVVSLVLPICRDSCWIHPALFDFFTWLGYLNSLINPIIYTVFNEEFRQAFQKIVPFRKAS
5-hydroxytryptamine receptor 2B, sequence (P41595 whole entry): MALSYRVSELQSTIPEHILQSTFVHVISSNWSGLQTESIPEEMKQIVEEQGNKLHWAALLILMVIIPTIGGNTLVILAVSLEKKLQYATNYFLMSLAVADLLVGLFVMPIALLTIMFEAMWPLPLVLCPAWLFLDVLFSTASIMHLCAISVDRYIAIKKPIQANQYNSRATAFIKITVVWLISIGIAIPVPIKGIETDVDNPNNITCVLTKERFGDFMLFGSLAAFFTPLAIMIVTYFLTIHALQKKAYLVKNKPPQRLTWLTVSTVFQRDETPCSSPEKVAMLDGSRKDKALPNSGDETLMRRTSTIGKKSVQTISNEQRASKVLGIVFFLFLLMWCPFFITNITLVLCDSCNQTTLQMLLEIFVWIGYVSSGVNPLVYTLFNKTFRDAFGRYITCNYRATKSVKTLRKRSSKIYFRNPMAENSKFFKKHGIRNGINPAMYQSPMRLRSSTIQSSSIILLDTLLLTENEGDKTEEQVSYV
Histamine H1 receptor (Homo sapiens), sequence (P35367 whole entry): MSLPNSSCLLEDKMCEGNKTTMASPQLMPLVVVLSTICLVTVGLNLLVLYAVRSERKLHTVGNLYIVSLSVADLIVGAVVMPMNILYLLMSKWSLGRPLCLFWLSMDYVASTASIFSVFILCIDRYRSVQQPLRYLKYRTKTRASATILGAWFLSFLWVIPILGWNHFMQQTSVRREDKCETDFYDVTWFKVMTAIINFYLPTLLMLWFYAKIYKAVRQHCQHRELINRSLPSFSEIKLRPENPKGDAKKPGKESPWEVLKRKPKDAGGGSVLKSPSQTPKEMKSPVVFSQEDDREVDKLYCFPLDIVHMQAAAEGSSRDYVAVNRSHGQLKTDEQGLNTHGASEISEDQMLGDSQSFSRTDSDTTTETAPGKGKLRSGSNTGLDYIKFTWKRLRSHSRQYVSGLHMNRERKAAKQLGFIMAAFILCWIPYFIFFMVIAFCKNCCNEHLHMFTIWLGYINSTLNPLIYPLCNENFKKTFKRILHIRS
5-hydroxytryptamine receptor 1E (Homo sapiens), sequence (P28566 whole entry): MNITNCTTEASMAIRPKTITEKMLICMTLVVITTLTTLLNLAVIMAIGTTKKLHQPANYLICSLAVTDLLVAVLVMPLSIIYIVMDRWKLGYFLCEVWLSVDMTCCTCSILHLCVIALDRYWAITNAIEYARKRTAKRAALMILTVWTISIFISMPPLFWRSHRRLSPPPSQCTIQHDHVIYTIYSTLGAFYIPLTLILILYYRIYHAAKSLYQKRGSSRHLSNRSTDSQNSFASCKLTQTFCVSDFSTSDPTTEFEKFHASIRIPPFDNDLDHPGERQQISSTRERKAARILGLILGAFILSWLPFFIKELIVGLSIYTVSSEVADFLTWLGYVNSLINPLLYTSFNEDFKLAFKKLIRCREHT
5-hydroxytryptamine receptor 2A, sequence (P28223 whole entry): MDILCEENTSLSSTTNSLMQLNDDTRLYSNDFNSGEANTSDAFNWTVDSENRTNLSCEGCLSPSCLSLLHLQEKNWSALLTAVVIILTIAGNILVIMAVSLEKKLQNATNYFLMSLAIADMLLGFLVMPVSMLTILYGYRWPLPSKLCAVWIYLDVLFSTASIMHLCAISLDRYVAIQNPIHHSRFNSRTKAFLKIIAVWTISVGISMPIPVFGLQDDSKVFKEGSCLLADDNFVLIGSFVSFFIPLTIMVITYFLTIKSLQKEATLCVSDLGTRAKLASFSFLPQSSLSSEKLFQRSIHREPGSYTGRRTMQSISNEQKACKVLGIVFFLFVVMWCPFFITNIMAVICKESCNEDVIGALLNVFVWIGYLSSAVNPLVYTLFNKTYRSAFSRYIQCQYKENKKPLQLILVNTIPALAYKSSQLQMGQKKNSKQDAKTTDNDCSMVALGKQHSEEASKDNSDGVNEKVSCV
Muscarinic acetylcholine receptor M4 (Homo sapiens), sequence (P08173 whole entry): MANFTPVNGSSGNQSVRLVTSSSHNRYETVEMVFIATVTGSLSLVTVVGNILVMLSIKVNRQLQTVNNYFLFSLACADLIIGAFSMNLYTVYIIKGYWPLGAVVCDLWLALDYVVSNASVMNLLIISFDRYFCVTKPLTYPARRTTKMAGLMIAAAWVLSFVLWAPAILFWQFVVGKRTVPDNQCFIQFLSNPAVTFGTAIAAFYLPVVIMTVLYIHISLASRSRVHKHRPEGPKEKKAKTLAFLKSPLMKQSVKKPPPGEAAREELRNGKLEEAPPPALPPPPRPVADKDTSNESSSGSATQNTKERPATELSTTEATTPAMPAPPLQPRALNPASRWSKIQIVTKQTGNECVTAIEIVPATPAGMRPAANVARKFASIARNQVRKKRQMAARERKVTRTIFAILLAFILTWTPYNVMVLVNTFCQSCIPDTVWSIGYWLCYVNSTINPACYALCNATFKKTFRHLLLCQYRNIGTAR
Alpha-1D adrenergic receptor (Homo sapiens), sequence (P25100 whole entry): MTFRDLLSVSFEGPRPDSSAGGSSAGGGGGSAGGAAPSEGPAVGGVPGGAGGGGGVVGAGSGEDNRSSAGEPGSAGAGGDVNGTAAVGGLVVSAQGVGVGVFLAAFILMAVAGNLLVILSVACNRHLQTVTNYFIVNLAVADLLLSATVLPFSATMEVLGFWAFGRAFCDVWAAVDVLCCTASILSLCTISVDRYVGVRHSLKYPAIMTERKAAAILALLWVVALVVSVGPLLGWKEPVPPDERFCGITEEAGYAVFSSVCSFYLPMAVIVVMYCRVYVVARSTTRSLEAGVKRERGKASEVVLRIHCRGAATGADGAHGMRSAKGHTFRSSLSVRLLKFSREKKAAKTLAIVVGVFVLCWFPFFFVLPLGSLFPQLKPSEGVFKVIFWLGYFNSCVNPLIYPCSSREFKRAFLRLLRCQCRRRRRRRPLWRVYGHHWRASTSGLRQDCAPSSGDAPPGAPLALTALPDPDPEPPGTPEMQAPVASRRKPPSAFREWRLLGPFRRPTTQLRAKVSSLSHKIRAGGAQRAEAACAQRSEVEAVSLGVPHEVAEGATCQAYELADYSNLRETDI
Muscarinic acetylcholine receptor M3 (Homo sapiens), sequence (P20309 whole entry, looked up): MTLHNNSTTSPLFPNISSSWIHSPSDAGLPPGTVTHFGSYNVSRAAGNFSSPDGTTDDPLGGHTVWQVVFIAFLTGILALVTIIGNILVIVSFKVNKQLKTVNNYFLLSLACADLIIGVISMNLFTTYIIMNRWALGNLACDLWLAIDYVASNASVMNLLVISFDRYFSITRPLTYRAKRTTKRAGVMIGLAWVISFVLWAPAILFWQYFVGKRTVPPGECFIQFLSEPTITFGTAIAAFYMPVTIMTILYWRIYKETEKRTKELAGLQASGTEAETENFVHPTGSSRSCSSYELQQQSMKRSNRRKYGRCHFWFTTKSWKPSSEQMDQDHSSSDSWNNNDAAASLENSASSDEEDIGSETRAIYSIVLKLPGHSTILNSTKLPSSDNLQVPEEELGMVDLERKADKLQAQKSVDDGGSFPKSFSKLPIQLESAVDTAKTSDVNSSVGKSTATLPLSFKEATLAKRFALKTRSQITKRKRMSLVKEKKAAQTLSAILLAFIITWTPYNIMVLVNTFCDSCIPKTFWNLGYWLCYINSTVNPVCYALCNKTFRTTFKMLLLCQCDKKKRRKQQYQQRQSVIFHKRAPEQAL
Muscarinic acetylcholine receptor M1 (Homo sapiens), sequence (P11229 whole entry): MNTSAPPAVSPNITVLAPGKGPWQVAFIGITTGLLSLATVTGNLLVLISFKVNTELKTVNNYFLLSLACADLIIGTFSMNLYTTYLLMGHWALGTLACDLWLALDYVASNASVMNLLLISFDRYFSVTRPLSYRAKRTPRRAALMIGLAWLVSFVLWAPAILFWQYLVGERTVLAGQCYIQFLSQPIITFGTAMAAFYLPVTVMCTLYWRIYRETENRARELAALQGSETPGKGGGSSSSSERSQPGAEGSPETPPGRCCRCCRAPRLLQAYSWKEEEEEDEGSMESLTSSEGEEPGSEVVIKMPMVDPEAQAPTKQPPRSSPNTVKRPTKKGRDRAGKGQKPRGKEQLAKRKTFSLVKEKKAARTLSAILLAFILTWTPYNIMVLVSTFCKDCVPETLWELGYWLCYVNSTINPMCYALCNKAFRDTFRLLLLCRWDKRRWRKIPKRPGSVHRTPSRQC
Sigma non-opioid intracellular receptor 1, sequence (Q99720 whole entry): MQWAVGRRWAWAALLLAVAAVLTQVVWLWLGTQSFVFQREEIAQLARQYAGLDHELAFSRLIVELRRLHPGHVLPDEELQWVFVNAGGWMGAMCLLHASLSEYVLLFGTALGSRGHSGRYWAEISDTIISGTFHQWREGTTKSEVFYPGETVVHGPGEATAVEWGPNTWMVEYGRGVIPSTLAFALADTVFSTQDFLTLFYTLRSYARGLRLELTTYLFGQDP
Alpha-2C adrenergic receptor (Homo sapiens), sequence (P18825 whole entry): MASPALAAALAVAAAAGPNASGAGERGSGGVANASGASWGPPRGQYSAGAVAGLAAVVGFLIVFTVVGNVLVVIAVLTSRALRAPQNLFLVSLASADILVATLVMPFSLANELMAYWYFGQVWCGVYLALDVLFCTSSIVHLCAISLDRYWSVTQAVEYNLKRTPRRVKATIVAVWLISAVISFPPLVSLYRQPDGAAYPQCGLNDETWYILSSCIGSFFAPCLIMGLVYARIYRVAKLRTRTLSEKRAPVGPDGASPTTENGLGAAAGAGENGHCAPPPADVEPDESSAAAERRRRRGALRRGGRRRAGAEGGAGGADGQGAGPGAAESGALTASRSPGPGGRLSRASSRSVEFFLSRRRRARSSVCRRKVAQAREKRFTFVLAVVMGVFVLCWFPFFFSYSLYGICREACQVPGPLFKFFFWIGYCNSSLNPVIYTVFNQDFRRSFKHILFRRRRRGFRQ

| Compound | inhibition [1] [%] | inhibition [2] [%] | inhibition [3] [%] | inhibition [4] [%] | inhibition [5] [%] | inhibition [6] [%] | inhibition [7] [%] | inhibition [8] [%] | inhibition [9] [%] | Ki ([10]; read-out: Ki) [µM] | inhibition [11] [%] | inhibition [12] [%] | inhibition [13] [%] | inhibition [14] [%] | inhibition [15] [%] | inhibition [16] [%] | inhibition [17] [%] | inhibition [18] [%] | inhibition [19] [%] | inhibition [20] [%] | other results |
| --- | --- | --- | --- | --- | --- | --- | --- | --- | --- | --- | --- | --- | --- | --- | --- | --- | --- | --- | --- | --- | --- |
| CC1CCN(c2ccnc(NCc3cn(C)cn3)n2)CC1 [TP-040] | 5.83 | 20.6 | 33.8 | 3.89 | 89.2 | 7.21 | 30 | 10.8 | 47 | 0.699 | 4.65 | 34.6 | 27.7 | 40.1 | 7.48 | 17.2 | 81.9 | 56.3 | 36.6 | 15.4 | Ki ([21]; read-out: Ki): 2.57 µM; inhibition [22]: 51.8%; inhibition [23]: 25.1%; inhibition [24]: 3.97%; inhibition [25]: 35.1%; inhibition [26]: 17.9%; inhibition [27]: 32.1%; inhibition [28]: 28.6%; Ki ([29]; read-out: Ki): 0.374 µM; Ki ([29]; read-out: pKi (converted)): 0.363 µM; inhibition [30]: 20.6%; Ki ([31]; read-out: Ki): 0.417 µM; Ki ([31]; read-out: pKi (converted)): 0.631 µM; inhibition [32]: 3.36%; inhibition [33]: 67.4% |
| CN1CCN(c2ccnc(NCCc3ccccc3)n2)CC1 [TP-040n] | 35.8 | 98 | 72.9 | 13 | 94.8 | -1.51 | 26.7 | 25.9 | 22.6 | 0.291 | 8.02 | 92.4 | 22.4 | 41.6 | -3.28 | 18.6 | 53.2 | 98 | 98.8 | 19.2 | Ki ([10]; read-out: pKi (converted)): 0.282 µM; Ki ([21]; read-out: Ki): 0.475 µM; Ki ([21]; read-out: pKi (converted)): 0.427 µM; inhibition [22]: 96.8%; inhibition [23]: 26%; inhibition [24]: 6.05%; inhibition [25]: 86.2%; inhibition [26]: -0.34%; inhibition [27]: 80.4%; inhibition [28]: 95.6%; Ki ([29]; read-out: Ki): 0.267 µM; Ki ([29]; read-out: pKi (converted)): 0.257 µM; inhibition [30]: 25.9%; Ki ([31]; read-out: Ki): 2.04 µM; Ki ([31]; read-out: pKi (converted)): 1.82 µM; inhibition [32]: 19.5%; inhibition [33]: 22.9% |
